Laboratory results as given in patent publication US10039741B2, “Use of delta tocopherol for the treatment of lysosomal storage disorders” (The United States of America, as represented by the …, priority 2010, dated 2018).

Tests used:
[1] = system: NPC patient-derived skin fibroblasts; experiment: Amplex red cholesterol assay (free cholesterol); assay type: cell-based, human; settings: NPCD fibroblasts
Text: Free cholesterol accumulation in cells is a hallmark of NPC disease. The Amplex red cholesterol assay was used to screen an approved drug library in the NPC patient-derived skin fibroblasts that have free cholesterol accumulation in late endosome and lysosome. […] We then show δ-tocopherol in the filipin cholesterol staining assay, a method used clinically for NPCD diagnosis. […] Lysosome size is usually enlarged in the NPCD cells using a lysotracker staining assay.
The free cholesterol level in these cells was then measured by a cholesterol oxidase coupled HRP/amplex red detection method with a commercial available kit (Invitrogen). The cells were seeded to black, tissue culture-treated 1536-well plates (Greiner Bio-One, Monroe, N.C.) at 800 cells/well in 5 μl medium by a Multidrop Combi dispenser (Thermo Scientific, Waltham, Mass.) and cultured for 24 hours. The assay plates were added with 23 nl/well of compound DMSO solution using a pintool station (Kalypsys, San Diego, Calif.) and cultured for 3 days. The 1536-well assay plate was washed by a plate-inverted centrifugation method that removing medium by centrifuging plates upside down against a stack of paper towel at 1000 rpm for 1 min followed by addition of 7 μl/well PBS buffer, repeating for two times. The PBS buffer was added with a 45 degree angled dispenser (Kalypsys) or a Multi-Drop Combi dispenser set at medium speed to reduce disturbance to the cells. After the cell wash, 2.5 μl/well of detection mixture from the kit was added followed by 1 hour incubation at 37° C. With the addition of the detection mixture, the cells were lysed by the detergent containing buffer and free cholesterols in cell lysate were oxidized by cholesterol oxidase to produce H2O2 which reacting with amplex red dye in the presence of horseradish peroxidase to yield red fluorescence signal. A ViewLux plate reader (PerkinElmer, Boston, Mass.) was used to measure the fluorescent signal in assay plates with the excitation of 573 nm and emissions of 610 nm.

NPCD fibroblasts = experiment: Lysotracker staining assay (lysosome size); assay type: cell-based, human; settings: NPCD fibroblasts
Method: Lysotracker is fluorescent dye that stains acidic compartments in live cells and is well-retained after aldehyde fixation. We have optimized a lysotracker staining assay to visualize the enlarged lysosome size in the NPC skin fibroblasts by applying appropriate concentration of lysotracker dye in comparison with these normal fibroblast cells. Cells were seeded at 8000 cells/well in 100 μl medium in a black/clear bottom, tissue culture treated plate and cultured overnight or in a dedicated time. The cells were live-stained with 100 u/well 50 nM Lysotracker Red-99 dye (Invitrogen) dissolved medium at 37° C. for 1 hr followed by two-times plate wash with PBS buffer using the plate-inverted centrifugation method. The plate was then added with 100 μl/well 3.2% formaldehyde and 1 μg/ml Hoechst 33342 (Invitrogen) in PBS and incubated at room temperature for 30 minutes. After three times of plate wash with PBS buffer, samples were stored at 4° C. until imaging. Samples were photographed using an IN Cell Analyzer 1000 (GE Healthcare) with a 20× objective equipped with CCD camera. DAPI filter and TRITC filter were used to visualize Hoechst and Lysotracker red, respectively. The images were processed by Adobe Photoshop.

Wolman disease cells = experiment: Amplex-red cholesterol assay (total cholesterol), combination therapy; assay type: cell-based, human
Text: (1) Amplex-red cholesterol assay. This biochemical assay (Invitrogen) uses cholesterol oxidase and a HRP-Amplex-re reporting system to measure the free cholesterol level in cells. With the addition of acid lipase to this assay, that hydrolyzes cholesterol ester to free cholesterol, the level of total cholesterol in cells including the cholesterol ester can be measured. This assay was used for detecting the total cholesterol level of in fibroblasts from patients with Wolman disease.

NPC fibroblasts = experiment: Lipid measurement by mass spectrometry (GC/MS); assay type: cell-based, human; settings: 80 μM α-tocopherol or 40 uM δ-tocopherol for 5 days
Method: (§1) Effects of δ-tocopherol and α-tocopherols on (FIG. 4A) free cholesterol, (FIG. 4B) cholesterol ester and (FIG. 4C) sphingomyelin in NPC cells. NPC or WT cells were treated with DMSO, 80 μM α-tocopherol or 40 uM δ-tocopherol for 5 days. Cell pellets were collected and extracted for lipids. FC EC and sphingomyelin levels were measured by GC/MS. (FIG. 4D) Effects of δ-tocopherols and α-tocopherols on cholesterol efflux.
(§2) Cell pellets were collected from 100-mm dishes and washed once with 10 ml PBS. Proteins were assayed using the BCA kit (Sigma-Aldrich) and lipids were extracted by modified Bligh and Dyer procedure (29) from the cells. Internal standards were added based on protein concentration that included N12:0 sphingomyelin, D7-cholesterol, 17:0 cholesterol ester (Avanti Polar Lipids, Inc). A portion of the lipid extract was used for detection of sphingomyelins using direct infusion mass spectrometric assay with lithium hydroxide for facilitating ionization and the rest was used to convert cholesterol and its ester into acetate by derivatization. The derivatization was performed by treating the dried crude lipid extract with solutions of 1 M acetic acid with 1 M DMAP in chloroform and 1 M EDC in chloroform at 50° C. for 2 hours. The derivatized product was extracted with hexane and analyzed by direct infusion mass spectrometric assay with 5% ammonium hydroxide for facilitating ionization.
(§3) A triple-quadrupole mass spectrometer equipped with an electrospray was used for analysis of lipids in positive mode. Sphingomyelins, cholesterol and cholesterol esters were detected by neutral loss scan of 213 (collision energy: 50 V), neutral loss scan of 77 (collision energy: 14 V) and precursor ion scan of m/z 369 (collision energy: 14 V) respectively. Data processing of mass spectrometric analyses including ion peak selection, data transferring, peak intensity comparison and quantitation was conducted using self-programmed Microsoft Excel macros (30).

wild type cells = experiment: Lipid measurement by mass spectrometry (GC/MS); assay type: cell-based, human; settings: wild type cells; 80 μM α-tocopherol or 40 uM δ-tocopherol for 5 days
Method: as §1, §2, §3

[2] = human plasma, physiological level; cited from earlier work
NPC mouse model = settings: cited from earlier work
NPC cat model = settings: cited from earlier work

O=C1O[C@H]([C@@H](O)CO)C(O)=C1O [vitamin C, reference compound]
cholesterol amount (cholesterol reduction) [1]: not active | enlarged lysosome size (NPCD fibroblasts): not active

methyl-beta-cyclodextrin [MBCD, reference compound]
cholesterol level (Wolman disease cells; MBCD at 0.3 mM alone): time dependent reduction

CC(=O)N[C@@H](CS)C(=O)O [NAc, N-acetyl cysteine, reference compound]
cholesterol amount (cholesterol reduction) [1]: did not have any effect | enlarged lysosome size (NPCD fibroblasts): did not have any effect

vitamin D [reference compound]
cholesterol amount (cholesterol reduction) [1]: not active | enlarged lysosome size (NPCD fibroblasts): not active

Cc1c(C)c2c(c(C)c1O)CC[C@@](C)(CCC[C@H](C)CCC[C@H](C)CCCC(C)C)O2 [α-tocopherol, reference compound]
amount of cholesterol ester (NPC fibroblasts; NPCD cells): significantly reduced | sphingomyelin amount (NPC fibroblasts; NPCD cells): not significantly changed | free cholesterol level (NPC fibroblasts; NPCD fibroblasts): not statistically different | amount of cholesterol ester (wild type cells): significantly reduced | sphingomyelin amount (wild type cells): not significantly changed | cholesterol level, sole therapy (Wolman disease cells; 40 μM delta-tocopherol or 80 μM alpha-tocopherol alone): cholesterol reduction effect | cholesterol level, combination (Wolman disease cells; alpha-tocopherol 20 uM combined with 10 μM MBCD): cholesterol reduction effect | plasma concentration [2]: ~26 µM

vitamin K [reference compound]
cholesterol amount (cholesterol reduction) [1]: not active | enlarged lysosome size (NPCD fibroblasts): not active

Cc1c(O)cc2c(c1C)O[C@](C)(CCC[C@H](C)CCC[C@H](C)CCCC(C)C)CC2 [γ-tocopherol, reference compound]
EC50 ([1]; Homo sapiens, Skin fibroblast, read-out: EC50, reduction of cholesterol accumulation): 60 to 80 µM

OC[C@H]1O[C@@H]2O[C@H]3[C@H](O)[C@@H](O)[C@@H](O[C@H]4[C@H](O)[C@@H](O)[C@@H](O[C@H]5[C@H](O)[C@@H](O)[C@@H](O[C@H]6[C@H](O)[C@@H](O)[C@@H](O[C@H]7[C@H](O)[C@@H](O)[C@@H](O[C@H]8[C@H](O)[C@@H](O)[C@@H](O[C@H]1[C@H](O)[C@H]2O)O[C@@H]8CO)O[C@@H]7CO)O[C@@H]6CO)O[C@@H]5CO)O[C@@H]4CO)O[C@@H]3CO [Beta-cyclodextrin]
cholesterol accumulation (NPC mouse model): reduce cholesterol accumulation | life span (NPC mouse model): increase in life span | cholesterol accumulation (NPC cat model): reduce cholesterol accumulation | life span (NPC cat model): increase in life span
